The values that follow are results of earlier work, collected in patent US20200129524A1, “PERSONALIZED CONTRACEPTIVE FORMULATIONS” (Agile Therapeutics, Inc., priority 2017, published 2020).

The target in this data set is T1, SHBG (Homo sapiens, UniProt P04278).
T1 sequence (P04278 30-402): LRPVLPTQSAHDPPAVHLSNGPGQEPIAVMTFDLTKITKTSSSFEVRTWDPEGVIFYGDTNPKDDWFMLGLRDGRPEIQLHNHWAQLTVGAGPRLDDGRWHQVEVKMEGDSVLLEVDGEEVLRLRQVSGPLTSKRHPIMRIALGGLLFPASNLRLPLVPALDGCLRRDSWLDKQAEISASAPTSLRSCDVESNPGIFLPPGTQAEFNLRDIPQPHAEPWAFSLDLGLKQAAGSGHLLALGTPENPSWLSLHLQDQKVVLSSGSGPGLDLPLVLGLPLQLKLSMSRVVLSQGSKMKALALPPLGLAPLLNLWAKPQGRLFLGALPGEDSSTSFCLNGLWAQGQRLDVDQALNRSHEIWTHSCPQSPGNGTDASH
To be noted: testosterone being 100; cited from earlier work.

Take `C[C@]12CC[C@H]3[C@@H](CCC4=CC(=O)CC[C@@]43C)[C@@H]1CC[C@@H]2O` [testosterone]: the “relative binding affinity to SHBG” value is given as 100%.
